Biological target: human 5-HT2C receptor (Homo sapiens, UniProt P28335, I156V/I160V/N158S)
Assay: cell-based

human 5-HT2C receptor, sequence (P28335 33-458 I156V/N158S/I160V limits assumed): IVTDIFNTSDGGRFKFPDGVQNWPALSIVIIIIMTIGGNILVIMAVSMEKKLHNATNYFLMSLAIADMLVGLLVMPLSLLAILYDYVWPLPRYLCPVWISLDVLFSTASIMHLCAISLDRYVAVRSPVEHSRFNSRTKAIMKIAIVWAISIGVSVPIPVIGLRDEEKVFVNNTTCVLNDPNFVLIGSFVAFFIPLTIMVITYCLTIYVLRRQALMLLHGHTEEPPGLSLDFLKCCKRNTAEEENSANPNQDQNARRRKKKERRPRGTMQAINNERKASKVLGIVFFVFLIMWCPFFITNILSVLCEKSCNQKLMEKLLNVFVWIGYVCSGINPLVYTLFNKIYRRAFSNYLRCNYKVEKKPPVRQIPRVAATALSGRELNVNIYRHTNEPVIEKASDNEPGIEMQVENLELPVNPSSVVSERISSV

Row | SMILES | EC50 [nM]
1 | COC[C@H]1CCN1c1c2c(nc3ccnn13)CCNCC2 [Example 8.1] | 75
2 | CN(CCc1ccccc1)C(=O)C1CN(c2c3c(nc4ccnn24)CCNCC3)C1 [Example 31.61] | 176
3 | CN1CCC2(CCN(C(=O)C3CN(c4c5c(nc6ccnn46)CCNCC5)C3)CC2)C1=O [Example 31.151] | 319
4 | CC1(C)CC2CC(C)(CN2C(=O)C2CN(c3c4c(nc5ccnn35)CCNCC4)C2)C1 (stereo not shown) [Example 31.25] | 1510
5 | O=C(C1CN(c2c3c(nc4ccnn24)CCNCC3)C1)N1CC[C@H](Oc2cccc(Cl)c2)C1 [Example 31.213] | 103
6 | CN(Cc1ccc2ccccc2c1)C(=O)C1CN(c2c3c(nc4ccnn24)CCNCC3)C1 [Example 31.169] | 33
7 | O=C(NCCF)C1CN(c2c3c(nc4ccnn24)CCNCC3)C1 [Example 37.107] | 91
8 | O=C(NCCCC(F)(F)F)C1CN(c2c3c(nc4ccnn24)CCNCC3)C1 [Example 37.66] | 42
9 | CN1CCc2nc3ccnn3c(N3CC(C(=O)NC4CC5CCC(C4)N5C)C3)c2CC1 (stereo not shown) [Example 36.10] | 374
10 | c1cc2c3c(cccc3c1)CN(c1c3c(nc4ccnn14)CCNCC3)C2 [Example 1.50] | 924
11 | C=CCC1CN(C(=O)C2CN(c3c4c(nc5ccnn35)CCNCC4)C2)Cc2ccccc21 (stereo not shown) [Example 31.88] | 71
12 | Cc1ccc(CN(C)C(=O)C2CN(c3c4c(nc5ccnn35)CCNCC4)C2)cc1 [Example 31.50] | 51
13 | Fc1cccc(Cl)c1OCC1CN(c2c3c(nc4ccnn24)CCNCC3)C1 [Example 15.14] | 2
14 | COc1ccc(OC2CN(c3c4c(nc5ccnn35)CCNCC4)C2)cc1OC [Example 35.49] | 137
15 | CN1CCc2nc3ccnn3c(N3CC(C(=O)NCCCC(F)(F)F)C3)c2CC1 [Example 36.47] | 130
16 | c1ccc2[nH]c(C3CN(c4c5c(nc6ccnn46)CCNCC5)C3)nc2c1 [Example 34] | 611
17 | CC1(N)CCN(C(=O)C2CN(c3c4c(nc5ccnn35)CCNCC4)C2)CC1 [Example 37.18] | 2
18 | O=C(C1CN(c2c3c(nc4ccnn24)CCNCC3)C1)N1CCC(CCc2ccc(F)cc2)CC1 [Example 31.105] | 111
19 | O=C(C1CN(c2c3c(nc4ccnn24)CCNCC3)C1)N1CCC(c2ccc(Br)cc2)CC1 [Example 31.112] | 131
20 | Cc1cnc(C2CN(c3c4c(nc5ccnn35)CCNCC4)C2)o1 [Example 10, 10-[3-(5-Methyl-oxazol-2-yl)-azetidin-1-yl]-6,7,8,9-tetrahydro-5H-1,4,7,10a-tetraaza-cyclohepta[f]indene] | 846
21 | COc1cc(F)ccc1OCC1CN(c2c3c(nc4ccnn24)CCNCC3)C1 [Example 15.8] | 6
22 | O=C(C1CN(c2c3c(nc4ccnn24)CCNCC3)C1)N1CCCC(c2ccccc2)CC1 (stereo not shown) [Example 31.152] | 77
23 | C#CCNC(=O)C1CN(c2c3c(nc4ccnn24)CCNCC3)C1 [Example 37.85] | 94
24 | O=C(C1CN(c2c3c(nc4ccnn24)CCNCC3)C1)N1CCN(C2CC2)CC1 [Example 37.32] | 22
25 | COc1cccc(N(C)C(=O)C2CN(c3c4c(nc5ccnn35)CCNCC4)C2)c1 [Example 31.55] | 600
26 | COc1ccc(CCN(C)C(=O)C2CN(c3c4c(nc5ccnn35)CCNCC4)C2)cc1 [Example 31.27] | 274

Row | SMILES | EC50 [nM]
27 | CC(C)CN1CCN(C(=O)C2CN(c3c4c(nc5ccnn35)CCN(C)CC4)C2)CC1 [Example 36.17] | 88
28 | COc1cc(C)cc(OCC2CN(c3c4c(nc5ccnn35)CCNCC4)C2)c1 [Example 15.22] | 141
29 | O=C(NCc1ccccc1)C1CCN(c2c3c(nc4ccnn24)CCNCC3)CC1 [Example 1.24] | 1310
30 | CC1CN(C(=O)C2CN(c3c4c(nc5ccnn35)CCN(C)CC4)C2)CC(C)N1C (stereo not shown) [Example 36.7] | 106
31 | O=C(C1CN(c2c3c(nc4ccnn24)CCNCC3)C1)N1CCCCC1c1cccnc1 (stereo not shown) [Example 31.187] | 1010
32 | CC1CC(C)CC(N(C)C(=O)C2CN(c3c4c(nc5ccnn35)CCNCC4)C2)C1 (stereo not shown) [Example 31.216] | 847
33 | FC(F)(F)c1cccc(OC2CN(c3c4c(nc5ccnn35)CCNCC4)C2)n1 [Example 20.10] | 181
34 | C#CC1CCN(C(=O)C2CN(c3c4c(nc5ccnn35)CCNCC4)C2)C1 (stereo not shown) [Example 38, (3-Ethynyl-pyrrolidin-1-yl)-[1-(6,7,8,9-tetrahydro-5H-1,4,7,10a-tetraaza-cyclohepta[f]inden-10-yl)-azetidin-3-yl]-methanone] | 6
35 | O=C(C1CN(c2c3c(nc4ccnn24)CCNCC3)C1)N1CCC(F)(F)C1 [Example 31.148] | 19
36 | CC1CN(C(=O)C2CN(c3c4c(nc5ccnn35)CCNCC4)C2)CCO1 (stereo not shown) [Example 31.34] | 91
37 | CN(CCc1cccc(Cl)c1)C(=O)C1CN(c2c3c(nc4ccnn24)CCNCC3)C1 [Example 31.59] | 147
38 | CN1CCc2nc3ccnn3c(N3CC(C(=O)N4CCC(C#N)C4)C3)c2CC1 (stereo not shown) [Example 36.44] | 214
39 | O=C(NCCc1ccccc1)C1CN(c2c3c(nc4ccnn24)CCNCC3)C1 [Example 31.21] | 727
40 | Fc1ccc(OCC2CN(c3c4c(nc5ccnn35)CCNCC4)C2)cc1 [Example 15, 10-[3-(4-Fluoro-phenoxymethyl)-azetidin-1-yl]-6,7,8,9-tetrahydro-5H-1,4,7,10a-tetraaza-cyclohepta[f]indene] | 43
41 | CC1CN(C(=O)C2CN(c3c4c(nc5ccnn35)CCN(C)CC4)C2)CCO1 (stereo not shown) [Example 36.11] | 138
42 | c1ccc(CCc2cnn3c(N4CCC4)c4c(nc23)CCNCC4)nc1 [Example 6, 10-Azetidin-1-yl-3-(2-pyridin-2-yl-ethyl)-6,7,8,9-tetrahydro-5H-1,4,7,10a-tetraaza-cyclohepta[f]indene] | 156
43 | C[C@@H](c1ccccc1)N(C)C(=O)C1CN(c2c3c(nc4ccnn24)CCNCC3)C1 [Example 31.91] | 2010
44 | CN(C(=O)C1CN(c2c3c(nc4ccnn24)CCNCC3)C1)c1ccccc1 [Example 31.5] | 742
45 | CN1CCc2nc3ccnn3c(N3CC(C(=O)N4CCC(F)(F)CC4)C3)c2CC1 [Example 36.23] | 124
46 | COc1ccc(OCC2CN(c3c4c(nc5ccnn35)CCNCC4)C2)c(F)c1 [Example 15.9] | 7
47 | CC1CC(c2ccccc2)CN1C(=O)C1CN(c2c3c(nc4ccnn24)CCNCC3)C1 (stereo not shown) [Example 31.128] | 54
48 | COc1ccc2c(c1)CCN2C(=O)C1CN(c2c3c(nc4c(C)cnn24)CCNCC3)C1 [Example 31.247] | 28
49 | c1cc2nc3c(c(N4CCCC4)n2n1)CCNCC3 [Example 7.1] | 764
50 | Fc1cccc(F)c1OC1CN(c2c3c(nc4ccnn24)CCNCC3)C1 [Example 35.41] | 9
51 | CC1CCCN(C(=O)C2CN(c3c4c(nc5ccnn35)CCNCC4)C2)C1 (stereo not shown) [Example 31.1] | 89
52 | CN1CCc2nc3ccnn3c(N3CC(C(=O)N4CC[C@H]5CNC[C@H]54)C3)c2CC1 [Example 36.40] | 283

Row | SMILES | EC50 [nM]
53 | CN(Cc1ccc(Cl)cc1)C(=O)C1CN(c2c3c(nc4c(Br)cnn24)CCNCC3)C1 [Example 31.141] | 87
54 | O=C(C1CN(c2c3c(nc4ccnn24)CCNCC3)C1)N1CCc2cccc(C(F)(F)F)c2C1 [Example 31.122] | 33
55 | COc1ccc(OCC2CN(c3c4c(nc5ccnn35)CCNCC4)C2)c(Cl)c1 [Example 15.16] | 3
56 | CN(Cc1cc(Cl)cc(Cl)c1)C(=O)C1CN(c2c3c(nc4ccnn24)CCNCC3)C1 [Example 31.165] | 72
57 | O=C(C1CN(c2c3c(nc4ccnn24)CCNCC3)C1)N1CCc2cc(F)ccc21 [Example 31.217] | 56
58 | FC(F)(F)c1ccnc(OC2CN(c3c4c(nc5ccnn35)CCNCC4)C2)c1 [Example 20.9] | 84
59 | CN(C)C(=O)C1CN(c2c3c(nc4ccnn24)CCNCC3)C1 [Example 9, 1-(6,7,8,9-Tetrahydro-5H-1,4,7,10a-tetraaza-cyclohepta[f]inden-10-yl)-azetidine-3-carboxylic acid dimethylamide] | 71
60 | Brc1ccc(OC2CN(c3c4c(nc5ccnn35)CCNCC4)C2)cc1 [Example 35.2] | 184
61 | Fc1ccc(OCC2CN(c3c4c(nc5ccnn35)CCNCC4)C2)cc1Cl [Example 15.11] | 20
62 | CC1(C(=O)N2CCC(C(F)(F)F)CC2)CN(c2c3c(nc4ccnn24)CCNCC3)C1 [Example 32.2] | 8290
63 | CN(Cc1ccc(Cl)c(Cl)c1)C(=O)C1CN(c2c3c(nc4ccnn24)CCNCC3)C1 [Example 31.81] | 33
64 | CC(C)NC1CCN(C(=O)C2CN(c3c4c(nc5ccnn35)CCNCC4)C2)CC1 [Example 37.21] | 2
65 | COCC1CN(c2c3c(nc4ccnn24)CCNCC3)C1 [Example 16, 10-(3-Methoxymethyl-azetidin-1-yl)-6,7,8,9-tetrahydro-5H-1,4,7,10a-tetraaza-cyclohepta[f]indene] | 211
66 | O=C(NCC1CCCCCC1)C1CN(c2c3c(nc4ccnn24)CCNCC3)C1 [Example 37.68] | 39
67 | CC1CCN(C(=O)C2CN(c3c4c(nc5ccnn35)CCN(C)CC4)C2)C1 (stereo not shown) [Example 36.42] | 741
68 | Cn1c(C2CN(c3c4c(nc5ccnn35)CCNCC4)C2)nc2ccc(Cl)cc21 [Example 34.6] | 65
69 | CN(Cc1ccc(Br)cc1)C(=O)C1CN(c2c3c(nc4ccnn24)CCNCC3)C1 [Example 31.80] | 30
70 | c1ccc(Cn2c(C3CN(c4c5c(nc6ccnn46)CCNCC5)C3)nc3ccccc32)cc1 [Example 34.28] | 188
71 | O=C(C1CN(c2c3c(nc4ccnn24)CCNCC3)C1)N1CCC2(CC1)Oc1ccccc1O2 [Example 31.186] | 68
72 | Cc1cc(Cl)ccc1OC1CN(c2c3c(nc4ccnn24)CCNCC3)C1 [Example 35.20] | 326
73 | Cc1cnn2c(N3CC(C(=O)N4CCC(Oc5ccccc5)CC4)C3)c3c(nc12)CCNCC3 [Example 31.244] | 62
74 | CC1CN(C(=O)C2CN(c3c4c(nc5ccnn35)CCNCC4)C2)CC(C)N1C (stereo not shown) [Example 37.4] | 4
75 | CCCN(C)C(=O)C1CN(c2c3c(nc4ccnn24)CCNCC3)C1 [Example 31.66] | 360
76 | Cc1ccc(OC2CN(c3c4c(nc5ccnn35)CCNCC4)C2)cn1 [Example 35.52] | 147
